Data as given in US11034692B1 (Genentech, Inc., priority 2017, dated 2021).

Molecular target: HPK1
Test: HPK1 Lantha Binding Assay ("Lanth")
Conditions: Table B1-1, read-out: HPK1 Ki (μM) (Lanth)
Protocol: HPK1 Lantha Binding Assay (“Lanth”)
The compounds to be tested were diluted by preparing 12.5 uL/well of 5 mM compound (100×) in columns 2 and 13 and 10 ul/well of DMSO in columns 3-12, 14-23, and wells A1-H1 and I24-P24 of the compound plate using a Bravo liquid handling platform. For the reference compound, the top concentration was 1 mM. To the plate was added 10 ul 2 mM staurosporine in wells J1-P1 and A24-H24. A 11 point 5-fold compound serial dilution was performed using the Bravo liquid handling platform. From the plate were transferred 2.5 ul of the solutions from column 2 and column 13 to the 10 ul of DMSO in columns 3 and 14 & so on. The compound plate was centrifuged at 2500 rpm for 1 min. From the compound plate was transferred 80 nl of the compounds into an assay plate using the Echo liquid handler system. One compound plate makes two assay plates. Each assay plate is sealed and stored in an N2 cabinet.
The following assay concentrations and times were used: 2 nM HPK1, 2 nM Eu-Anti-GST Ab, and 15 nM Tracer222, with 60 min incubation time.
III. HPK Lantha Binding Assay:
For the binding assay, 4 ul 2×HPK1 and Eu-anti-GST antibody were added to each well of the assay plate using a Multidrop reagent dispenser. The solutions were incubated in a 23 C incubator for 1 h. To each well of the assay plate was added 4 ul 2× Tracer-222 using a Multidrop reagent dispenser. The solutions were again incubated in a 23 C incubator for 1 h. The results of the assay were read using an Envision plate reader with the following parameters: TR_FRET, 340ex/615 and 665em; 100 usec Delay; and 200 usec integration.
Compound Ki was analyzed using Morrison ki fit model in XL-fit • a. fit=(1−((((E+x)+(Ki*(1+(S/Kd))))−(((((E+x)+(Ki*(1+(S/Kd))))[…])−((4*E)*x))^0.5))/(2*E))) • res=(y-fit) • b. Parameters: • E=enzyme concentration • S=Tracer222 concentration, Kd=Tracer222 Kd • All measurements reported using the same units (uM)
Exemplary compounds of Formula I or Ia were tested in the binding assays. The Ki data in Table B1-1 are based on the “Lanth” assay.

SMILES	Ki [nM]
CCc1ccncc1-c1cc2cc(Nc3cnn(C)c3)ncc2c(N)n1 [Compound 74, 3-(4-Ethylpyridin-3-yl)-N6-(1-methyl-1H-pyrazol-4-yl)-[2,7]naphthyridine-1,6-diamine]	1.3
CCc1ccncc1-c1cc2cc(Nc3cn[nH]c3)ncc2c(N)n1 [Compound 75, 3-(4-Ethylpyridin-3-yl)-N6-(1H-pyrazol-4-yl)-[2,7]naphthyridine-1,6-diamine]	0.8
CCc1ccncc1-c1cc2cc(Nc3ccn(C)n3)ncc2c(N)n1 [Compound 76, 3-(4-Ethylpyridin-3-yl)-N6-(1-methyl-1H-pyrazol-3-yl)-[2,7]naphthyridine-1,6-diamine]	1.3
CCc1ccncc1-c1cc2cc(Nc3cc[nH]n3)ncc2c(N)n1 [Compound 77, 3-(4-Ethylpyridin-3-yl)-N6-(1H-pyrazol-3-yl)-[2,7]naphthyridine-1,6-diamine]	0.6
CCc1ccncc1-c1cc2cc(Nc3cnn(C4CCNCC4)c3)ncc2c(N)n1 [Compound 78, 3-(4-Ethylpyridin-3-yl)-N6-(1-piperidin-4-yl-1H-pyrazol-4-yl)-[2,7] naphthyridine-1,6-diamine]	0.1
CCc1ccncc1-c1cc2cc(Nc3cc(C)ncn3)ncc2c(N)n1 [Compound 80, 3-(4-Ethylpyridin-3-yl)-N6-(6-methylpyrimidin-4-yl)-[2,7]naphthyridine-1,6-diamine]	0.3
CCc1ccncc1-c1cc2cc(Nc3cc(C(=O)N(C)CC)ccn3)ncc2c(N)n1 [Compound 81, 2-[8-Amino-6-(4-ethylpyridin-3-yl)-[2,7]naphthyridin-3-ylamino]-N-ethyl-N-methylisonicotinamide]	0.3
CCc1ccncc1-c1cc2cc(Nc3cccc(CO)n3)ncc2c(N)n1 [Compound 83, {6-[8-amino-6-(4-ethylpyridin-3-yl)-[2,7]naphthyridin-3-ylamino]pyridin-2-yl}methanol]	0.3
CCc1ccncc1-c1cc2cc(Nc3cnn(CCO)c3)ncc2c(N)n1 [Compound 85, 2-{4-[8-Amino-6-(4-ethylpyridin-3-yl)-[2,7]naphthyridin-3-ylamino]pyrazol-1-yl}ethanol]	1.98
CCc1ccncc1-c1cc2cc(NCc3ccn[nH]3)ncc2c(N)n1 [Compound 105, N6-((1H-pyrazol-5-yl)methyl)-3-(4-ethylpyridin-3-yl)-2,7-naphthyridine-1,6-diamine]	40.2
CC(=O)Nc1cc2c(F)c(-c3cnccc3C)nc(N)c2cn1 [Compound 156, N-(8-amino-5-fluoro-6-(4-methylpyridin-3-yl)-2,7-naphthyridin-3-yl)acetamide]	21
Cc1ccncc1-c1nc(N)c2cnc(NC(=O)Nc3cnn(C)c3)cc2c1F [Compound 162, 1-[8-amino-5-fluoro-6-(4-methyl-3-pyridyl)-2,7-naphthyridin-3-yl]-3-(1-methylpyrazol-4-yl)urea]	3.2
Cc1ccncc1-c1nc(N)c2cnc(NC(=O)Nc3cnn(C)c3)cc2c1Cl [Compound 163, 1-[8-amino-5-chloro-6-(4-methyl-3-pyridyl)-2,7-naphthyridin-3-yl]-3-(1-methylpyrazol-4-yl)urea]	1.2
CCc1ccncc1-c1cc2cc(Nc3cnn(CCO)c3)ncc2c(N)n1 [Compound 168, 2-[4-[[8-amino-6-(4-ethyl-3-pyridyl)-2,7-naphthyridin-3-yl]amino]pyrazol-1-yl]ethanol]	2

Further lines, results first:

Ki [nM]	SMILES
5.24	CCc1ccncc1-c1cc2cc(NC(=O)OCc3ccccc3)ncc2c(N)n1 [Compound 57, Benzyl 8-amino-6-(4-ethylpyridin-3-yl)-2,7-naphthyridin-3-ylcarbamate]
5.47	CCc1ccncc1-c1cc2cc(NC(=O)N[C@@H]3CCN(C)C3=O)ncc2c(N)n1 [Compound 65, (R)-1-(8-amino-6-(4-ethylpyridin-3-yl)-2,7-naphthyridin-3-yl)-3-(1-methyl-2-oxopyrrolidin-3-yl)urea]
545	CCc1ccncc1-c1cc2cc(NC(=O)C3=CC3)ncc2c(N)n1 [Compound 68, N-[8-amino-6-(4-ethyl-3-pyridyl)-2,7-naphthyridin-3-yl]cyclopropene-1-carboxamide]
27.6	CCc1ccncc1-c1cc2cc(NC(=O)c3cc(C)[nH]n3)ncc2c(N)n1 [Compound 70, 5-Methyl-1H-pyrazole-3-carboxylic acid [8-amino-6-(4-ethylpyridin-3-yl)-[2,7]naphthyridin-3-yl]amide]
10	CCc1ccncc1-c1cc2cc(NC(=O)c3cc[nH]n3)ncc2c(N)n1 [Compound 71, 2H-Pyrazole-3-carboxylic acid [8-amino-6-(4-ethylpyridin-3-yl)-[2,7]naphthyridin-3-yl]amide]
14.1	CCc1ccncc1-c1cc2cc(NC(=O)c3ccnn3C)ncc2c(N)n1 [Compound 72, 2-Methyl-2H-pyrazole-3-carboxylic acid [8-amino-6-(4-ethylpyridin-3-yl)-[2,7]naphthyridin-3-yl]amide]
13.4	CCc1ccncc1-c1cc2cc(NC(=O)c3cnn(C)c3)ncc2c(N)n1 [Compound 73, 1-Methyl-1H-pyrazole-4-carboxylic acid [8-amino-6-(4-ethylpyridin-3-yl)-[2,7]naphthyridin-3-yl]amide]
839	CCc1ccncc1-c1cc2cc(NS(=O)(=O)C3CC3)ncc2c(N)n1 [Compound 79, Cyclopropanesulfonic acid [8-amino-6-(4-ethylpyridin-3-yl)-[2,7]naphthyridin-3-yl]amide]
1.8	CCc1ccncc1-c1cc2cc(NC(=O)c3cnn(C4CCNCC4)c3)ncc2c(N)n1 [Compound 84, 1-Piperidin-4-yl-1H-pyrazole-4-carboxylic acid [8-amino-6-(4-ethylpyridin-3-yl)-[2,7]naphthyridin-3-yl]amide]
21.5	CCc1ccncc1-c1cc2cc(NC(=O)Cc3ccn[nH]3)ncc2c(N)n1 [Compound 102, N-(8-amino-6-(4-ethylpyridin-3-yl)-2,7-naphthyridin-3-yl)-2-(1H-pyrazol-5-yl)acetamide]
1.3	CCc1ccncc1-c1cc2cc(NC(=O)N[C@H]3C[C@@H](O)C3)ncc2c(N)n1 [Compound 109, 1-[8-amino-6-(4-ethyl-3-pyridyl)-2,7-naphthyridin-3-yl]-3-(cis-3-hydroxycyclobutyl)urea]
2.38	Cc1ccncc1-c1cc2cc(NC(=O)C3C4CNCC43)ncc2c(N)n1 (stereo not shown) [Compound 111, N-[8-amino-6-(4-methyl-3-pyridyl)-2,7-naphthyridin-3-yl]-3-azabicyclo[3.1.0]hexane-6-carboxamide]
3.53	Cc1ccncc1-c1cc2cc(NC(=O)C3CC34CNC4)ncc2c(N)n1 (stereo not shown) [Compound 113, N-[8-amino-6-(4-methyl-3-pyridyl)-2,7-naphthyridin-3-yl]-5-azaspiro[2.3]hexane-2-carboxamide]
1.1	COCCN1C[C@@H]2[C@H](C1)[C@H]2C(=O)Nc1cc2cc(-c3cnccc3C)nc(N)c2cn1 [Compound 124, exo-N-[8-amino-6-(4-methyl-3-pyridyl)-2,7-naphthyridin-3-yl]-3-(2-methoxyethyl)-3-azabicyclo[3.1.0]hexane-6-carboxamide]
15	Cc1ccncc1-c1cc2cc(NC(=O)O[C@@H]3CCNC3=O)ncc2c(N)n1 [Compound 133]
5.6	Cc1ccncc1-c1cc2cc(NC(=O)N[C@H]3CCC[C@@H]3O)ncc2c(N)n1 [Compound 134, 1-[8-amino-6-(4-methyl-3-pyridyl)-2,7-naphthyridin-3-yl]-3-[(1S,2S)-2-hydroxycyclopentyl]urea]
5.9	CC(=O)N1C[C@@H]2[C@H](C1)[C@H]2C(=O)Nc1cc2cc(-c3cnccc3C)nc(N)c2cn1 [Compound 143, exo-3-acetyl-N-[8-amino-6-(4-methyl-3-pyridyl)-2,7-naphthyridin-3-yl]-3-azabicyclo[3.1.0]hexane-6-carboxamide]
15	Cc1ccncc1-c1cc2cc(NC(=O)[C@H]3[C@@H]4CN(S(C)(=O)=O)C[C@@H]43)ncc2c(N)n1 [Compound 151, exo-N-[8-amino-6-(4-methyl-3-pyridyl)-2,7-naphthyridin-3-yl]-3-methylsulfonyl-3-azabicyclo [3.1.0]hexane-6-carboxamide]
3.6	Cc1ccncc1-c1cc2cc(NC(=O)[C@H]3[C@@H]4CNC(=O)[C@@H]43)ncc2c(N)n1 [Compound 158, Exo-N-(8-amino-6-(4-methylpyridin-3-yl)-2,7-naphthyridin-3-yl)-2-oxo-3-azabicyclo[3.1.0]hexane-6-carboxamide]
0.02	CC(=O)N1CC(n2cc(Nc3cc4cc(-c5cnccc5C)nc(N)c4cn3)cn2)C1 [Compound 161, 1-[3-[4-[[8-amino-6-(4-methyl-3-pyridyl)-2,7-naphthyridin-3-yl]amino]pyrazol-1-yl]azetidin-1-yl]ethanone]
